Source: patent publication US7700553B2, “Selective inhibition of NF-κB activation by peptides designed to disrupt nemo oligomerization” (priority 2003, dated 2010)
pKd: −log10 of the molar value. Ends that are not written are not given here. Peptide text beside a SMILES is read from it. * marks the point of attachment. BODIPYFLEthylmaleimide = Cc1cc(C)n2c1C=C1C=CC(CCC(=O)NCCN3C(=O)CC(*)C3=O)=[N+]1[B-]2(F)F; BODIPY = not defined here; Cam = NC(=O)C*

What was measured:
70Z/3-C3 cells = assay: FACS analysis of cellular uptake of BODIPY-labeled peptides; assay type: cell-based, murine; conditions: 2 μM BODIPY-peptide, 2 h at 37° C.
Description: All experiments were performed in duplicates.
The uptake of BODIPY labeled NEMO peptides into living cells were monitored by fluorescence activated cell sorting (FACS) which is a conventional tool used to quantify cellular internalization.
Then present inventors next investigated the kinetic and concentration dependency of cellular uptake for the Ant-CC2 BODIPY peptide keeping in mind that the transduction of other NEMO peptides should occur in a similar fashion (FIGS. 2B and 2C).

[1] = system: human retinoblastoma cell lines Y79; assay type: cell-based; conditions: for Y79 cell died: 5 μM
Description: FIG. 8: Cell Death Induced in the Retinoblastoma Cell Line Y79 by Ant-CC2 and Ant-LZ Peptides Rb cell line Y79 were treated with various concentration of the Ant-CC2 (WT) (filled squares) or Ant-CC2 (Mu) (open squares) (A), or Ant-LZ (WT) (filled circles), or Ant-LZ (Mu) (open circles) (B), or Ant peptide (open triangle) (C) for 3 hours (A, B) or 16 hours (C). Cell survival was then evaluated using the MTS assay as described in “Materials and methods”
The detection of cell death was performed using the MTS assay provided by Promega (CellTiter 96® AQueous one solution cell proliferation assay). Briefly, 0.3×10^6 Y79 cells in 450 μl were treated with 50 μl of the wild type Ant-CC2 and Ant-LZ peptides (0.1 to 20 μM) or their mutants Ant-CC2 (Mu), Ant-LZ (Mu) or the Ant or left untreated in serum-free RPMI medium at 37° C. After an incubation of […], an aliquot of the cell suspension (200 μl, 0.12×10^6 cells), was then transferee in 96-well plates and mixed with the MTS solution (40 μl) containing the MTS compound and the phenazine ethosulfate. Two hours after, the quantity of formazan produced by viable cells was measured using an automated microplate reader (Bio-TeK Instruments, INC) at 490 nm absorbance. Cell survival was observed under microscope and was estimated as a percentage of the value of untreated controls. The background of the reaction was determined by mixing the MTS solution with cell-free RPMI medium. To increase the sensitivity of the cell death assay, the present inventors used peptides devoid of BODIPY-labeling because the absorption spectra of the fluorophor overlaps with that of the formazan product. All experiments were repeated twice and each experiment condition was repeated in duplicate wells in each experiment.
Given that specific NF-κB inhibition may trigger apoptosis of cancer cells, the present inventors examined the effects of both cell-permeable Ant-LZ and Ant-CC2 peptides on human retinoblastoma cell viability. In these experiments, the present inventors used NEMO-derived polypeptides without a N-terminal BODIPY labeling to prevent any interference with the MTS assay (see “Materials and Methods”). […] The effect of the Ant-LZ peptide on cell death was stronger than that of the Ant-CC2. This induction of cell death was significant since Rb cell survival was 20% and 65% with the Ant-LZ and the Ant-CC2 peptides respectively when cancer cells were treated for 3 hours at a 20 μM concentration. […] In contrast, 80% and 55% of Y79 cell died in the presence of Ant-LZ and Ant-CC2 respectively at 5 μM concentration (FIG. 8C).

lymphocytes B = assay: Cytotoxicity by MTS assay, microscope observation and FACS; conditions: for cellular proportion of cell death by FACS: pre-B lymphocytes, 20 μM; for Cytotoxicity MTS Assay: MTS cell proliferation assay (Promega)
[2] = system: LPS-induced NF-κB activation in 70Z/3-C3 cells; assay: NF-κB inhibition assay, first procedure (NF-κB dependent β-galactosidase reporter, LPS stimulation); assay type: cell-based, murine; conditions: for effect on LPS-induced NF-κB activation (in words): 20 μM peptide, 2 h, then 5 h LPS; for effect on LPS-induced NF-κB activation of peptides not fused to antennapedia (in words): 2 h peptide, then 3 h LPS (FIG. 3D)
Description: The resulting cell line, 70Z3-C3, was incubated for 2 hours in the absence or in the presence of 20 μM of antennapedia peptide (Ant), or BODIPY-labeled antennapedia peptide (BODIPY-Ant), or BODIPY-labeled antennapedia peptide coupled to CC2 (BODIPY-Ant-CC2) or LZ (BODIPY-Ant-LZ) peptides, After peptide internalization, cells were treated for 5 hours with LPS (3 μg/ml, (+) in left panel) or untreated (right panel and (−) in left panel) and the NF-κB activity was measured by β-galactosidase assay. […] Cells were treated as in (A) but with different concentration of peptide as indicated. The potential of each peptide to inhibit LPS-induced NF-κB activation was measured by determining the IC50 value that correspond to 50% inhibition of LPS-induced NF-κB activation as compared to the control (no peptide) (C). […] Control (no peptide) or CC2, or LZ peptides, with (BODIPY-ANT-CC2, BODIPY-ANT-LZ) or without the antennapedia sequence at the N-terminus (CC2, LZ) were incubated for 2 hours with 70Z3-C3 cells followed with (+) or without (−) the LPS-treatment for 3 hours. NF-κB activity was then measured by β-galactosidase assay.
In a first procedure 2.2×10^5 70Z/3-C3 cells in 220 μl of RPMI 1640 supplemented with 10% fetal calf serum (FCS) and 50 μM β-mercaptoethanol were placed in a 96-well plate and incubated with various concentrations of peptide (0 to 20 μM) at 37° C. in 5% CO2 incubator. After two hours an equal portion (100 μl) of each cell sample transferred in two wells containing each 10^5 cells. One aliquot of cells was then treated for 5 hours with lipopolysaccharides from Salmonella abortus (Sigma) at 0.5 μg/ml final concentration, and the other one left-treated. After 5 hours, cells were centrifuged at 400×g for 5 min at room temperature and the cell pellets were washed three times with cold PBS (250 μl) by centrifugation. Cells were then lysed in the lysis buffer (25 mM tris-phosphate buffer at pH 7.8 containing 8 mM magnesium chloride, 1 mM dithioerythreitol, 1% Triton X-100, 15% glycerol and a protease inhibitor mixture (Roche)), and samples were centrifuged at 4° C. for 20 min to clarify the lysate. The supernatant was then kept on ice, and 30 μl was then assayed to measure the β-galactosidase activity with a plate luminometer (Berthold) using the galacton-star as chemiluminescent substrate (BD Biosciences Clontech, Bronstein et al., 1989). Background of reaction was measured by mixing for 1 hour 30 μl of lysis buffer with the reaction buffer (196 μl) and the galacton-star substrate (4 μl) provided by BD Biosciences.

[3] = Kd and cooperativity indice of NLM peptides by Hill coefficient calculation; assay type: binding; conditions: for pKd: Hill equation fit, read-out: dissociation constant Kd
From the text: The present inventors compared NLM-DR to the corresponding NLM peptide by measuring the respective cooperativity indices, which evidence an advantage of NLM-DR mutated peptide over the wild-type.
The calculation of the “cooperativity indice” by means of Hill coefficient is based on the following formula Boundmax×L^n/(KD^n+L^n)
Boundmax is the maximum concentration of the bound ligand,
L is the concentration of the free ligand,
n is the cooperativity indice and
KD, is the affinity constant of the ligand by the protein.
If these values were to be compared to those obtained from the curves without accounting for cooperativity, the affinity of NLM-DR peptide would be 75 times higher than the affinity of wild-type NLM peptide.

[4] = longer treatment (FIG. 8C, 16 hours)

Ac-C(Cam)RQIKIWFQNRRMKWKKSKGMQLEDLRQQLQQAEEALVAKQELIDKLKEEAEQHKIV-NH2 [Ant-CC2]
proportion of cells transduced (70Z/3-C3 cells): 100%
Y79 cell died [1, 4]: 55%
cellular proportion of cell death by FACS (lymphocytes B; absence of stimuli): 9%
cellular proportion of cell death by FACS (lymphocytes B; after LPS stimulation): 13%

B-CRQIKIWFQNRRMKWKK ({BODIPY}-CRQIKIWFQNRRMKWKK; reading uncertain) [BODIPY-Ant, reference compound]
effect on LPS-induced NF-κB activation (in words) [2]: same level of NF-κB activation as the control

B-CRRRRRRRLKAQAKIYKARFQAERHAREK [BODIPY-R7-NLM-DR] (CRRRRRRRLKAQADIYKARFQAERHAREK; not fully specified (N-terminus))
Cytotoxicity Cell morphology FACS (lymphocytes B): no
Cytotoxicity Cell morphology Microscope (lymphocytes B): no

SKGMQLEDLRQQLQQAEEALVAKQELIDKLKEEAEQHKIV [CC2 (WT)]
effect on LPS-induced NF-κB activation of peptides not fused to antennapedia (in words) [2]: same level of activation as the control

B-CRQIKIWFQNRRMKWKKLAQADIYKARFQAERHAREK (CRQIKIWFQNRRMKWKKLKAQADIYKARFQAERHAREK; not fully specified (N-terminus)) [BODIPY-Ant-NLM-DR]
Cytotoxicity Cell morphology FACS (lymphocytes B): +
Cytotoxicity MTS Assay (lymphocytes B): no
Cytotoxicity Cell morphology Microscope (lymphocytes B): +

B-CRRRRRRRLKAQAKIYKARFQAERHAREK [BODIPY-R9-NLM-DR] (CRRRRRRRRRLKAQADIYKARFQAERHAREK; not fully specified (N-terminus))
Cytotoxicity Cell morphology FACS (lymphocytes B): no
Cytotoxicity MTS Assay (lymphocytes B): no
Cytotoxicity Cell morphology Microscope (lymphocytes B): no

CC[C@H](C)[C@H](NC(=O)[C@H](CC(=O)O)NC(=O)[C@H](C)NC(=O)[C@H](CCC(N)=O)NC(=O)[C@H](C)NC(=O)[C@H](CCCCN)NC(=O)[C@H](CC(C)C)NC(=O)[C@H](CCCNC(=N)N)NC(=O)[C@H](CCCNC(=N)N)NC(=O)[C@H](CCCNC(=N)N)NC(=O)[C@H](CCC(N)=O)NC(=O)[C@H](CCCNC(=N)N)NC(=O)[C@H](CCCNC(=N)N)NC(=O)[C@H](CCCCN)NC(=O)[C@H](CCCCN)NC(=O)[C@H](CCCNC(=N)N)NC(=O)CNC(=O)[C@H](Cc1ccc(O)cc1)NC(=O)[C@H](CSC1CC(=O)N(CCNC(=O)CCC2=[N+]3C(=Cc4c(C)cc(C)n4[B-]3(F)F)C=C2)C1=O)NC(C)=O)C(=O)N[C@@H](Cc1ccc(O)cc1)C(=O)N[C@@H](CCCCN)C(=O)N[C@@H](C)C(=O)N[C@@H](CCCNC(=N)N)C(=O)N[C@@H](Cc1ccccc1)C(=O)N[C@@H](CCC(N)=O)C(=O)N[C@@H](C)C(=O)N[C@@H](CCC(=O)O)C(=O)N[C@@H](CCCNC(=N)N)C(=O)N[C@@H](Cc1c[nH]cn1)C(=O)N[C@@H](C)C(=O)N[C@@H](CCCNC(=N)N)C(=O)N[C@@H](CCC(=O)O)C(=O)N[C@@H](CCCCN)C(N)=O (stereo partly shown) [BODIPY-TAT-NLM-DR] (Ac-C(BODIPYFLEthylmaleimide)YGRKKRRQRRRLKAQADIYKARFQAERHAREK-NH2)
Cytotoxicity Cell morphology FACS (lymphocytes B): no
Cytotoxicity MTS Assay (lymphocytes B): no
Cytotoxicity Cell morphology Microscope (lymphocytes B): no

Ant-LZ (Mu): mutant Ant-LZ devoid of BODIPY-labeling (sequence of SEQ ID NO: 8) (Ac-CRQIKIWFQNRRMKWKKLKAQADIYKADFQAERHAREKLVEKKEYSQEQLEQSQREFNKL-NH2; not fully specified (residue 1))
proportion of cells transduced (70Z/3-C3 cells): 100%

Ac-CRQIKIWFQNRRMKWKKLKAQADIYKADFQAERHAREKLVEKKEYLQEQLEQLQREFNKL-NH2 [Ant-LZ]
proportion of cells transduced (70Z/3-C3 cells): 100%
Y79 cell died [1, 4]: 80%

LKAQADIYKADFQAERHAREKLVEKKEYLQEQLEQLQREFNKL [LZ (WT)]
effect on LPS-induced NF-κB activation of peptides not fused to antennapedia (in words) [2]: same level of activation as the control

LKAQADIYKARFQAERHAREK [NLM-DR]
pKd [3]: 3.77
affinity of NLM-DR peptide relative to wild-type NLM peptide ([3]; values compared without accounting for cooperativity): 75 times

Ant-CC2 (Mu): mutant Ant-CC2 devoid of BODIPY-labeling (sequence of SEQ ID NO: 4) (Ac-CRQIKIWFQNRRMKWKKSKGMQLEDLRQQGQQAEEAGVAKQELGDKLKEEAEQHKIV-NH2; not fully specified (residue 1))
proportion of cells transduced (70Z/3-C3 cells): 100%
induction of cell death (in words) ([1]; Y79 cells, 3 hours, mutant peptides): did not induce concentration cell death

Ant: third helix of the Antennapedia/penetratin protein, internalization peptide (SEQ ID NO: 1), without BODIPY label (CRQIKIWFQNRRMKWKK) [reference compound]
effect on LPS-induced NF-κB activation (in words) [2]: same level of NF-κB activation as the control
effect on cell survival (in words) ([1]; Y79 cells, longer treatment (FIG. 8C, 16 hours)): did not affect cell survival

NLM: corresponding wild type NLM peptide covering the same 21 amino acid range as NLM-DR (LKAQADIYKADFQAERHAREK-NH2; not fully specified (N-terminus))
pKd [3]: 3.62
